US7560547B2, “Hydroxyalkyl cyclic diamine compounds” (Kowa Co., Ltd., priority 2002, dated 2009)

Row | melting point [°C] | Structure (SMILES)
1 | 197 to 199 | Cc1cc(Br)c(NC(=O)CBr)c(Br)n1 [Example 3, N-[2,4-dibromo-6-methylpyridin-3-yl]-2-bromoacetamide]
2 | 119 to 120 | CSc1cc(C)nc(SC)c1NC(=O)CN1CCN(CCO)CC1 [Example 7, 2-[4-(2-hydroxyethyl)piperazin-1-yl]-N-[2,4-bis(methylthio)-6-methylpyridin-3-yl]acetamide]
3 | 184 to 185 | Cc1cc(Cl)c(NC(=O)CBr)c(Cl)n1 [Example 5, N-[2,4-dichloro-6-methylpyridin-3-yl]-2-bromoacetamide]

Second part, the compound before the results:

Row | Structure (SMILES) | melting point [°C]
4 | Cc1cc(Br)c([N+](=O)[O-])c(Br)n1 [Example 1, 2,4-dibromo-6-methyl-3-nitropyridine] | 118 to 120
5 | Cc1cc(Br)c(N)c(Br)n1 [Example 2, 3-amino-2,4-dibromo-6-methylpyridine] | 93 to 94
